Assay results published in US11274083B2, “Substituted thiophenyl uracils, salts thereof and the use thereof as herbicidal agents” (Syngenta Crop Protection AG, priority 2017, dated 2022).
Each block holds one compound with its values, some of them ahead of it.

Assays:
Format in all cases: in vivo
[1] = tested on: Viola tricolor; test: Herbicidal action post-emergence, greenhouse pot test; settings: application rate 20 g/ha
Protocol: (§1) Seeds of mono- and dicotyledonous weed plants and crop plants were laid out in sandy loam soil in plastic or wood-fiber pots, covered with soil and grown under controlled growth conditions in a greenhouse. 2 to 3 weeks after sowing, the trial plants were treated at the one-leaf stage. The compounds of the invention formulated in the form of wettable powders (WP) or as emulsion concentrates (EC) were then sprayed onto the green parts of the plant as an aqueous suspension or emulsion with addition of 0.5% additive at a water application rate equivalent to 600 L/ha. After the trial plants had stood for about 3 weeks in the greenhouse, under optimal growth conditions, the effect of the preparations was scored visually by comparison with untreated controls. For example, 100% efficacy=plants have died, 0% efficacy=like control plants. Tables A1 to A16 below show the efficacies of selected compounds of the general formula (I) according to tables I.1 to I.50 on various harmful plants and an application rate corresponding to 80 g/ha or lower that were obtained by the aforementioned trial method.

[2] = tested on: Abutilon theophrasti; test: as above; settings: application rate 20 g/ha
Protocol: as §1

[3] = tested on: Setaria viridis; test: as above; settings: application rate 20 g/ha
Protocol: as §1

[4] = tested on: Echinochloa crus-galli; test: as above; settings: application rate 20 g/ha
Protocol: as §1

[5] = tested on: Matricaria inodora; test: as above; settings: application rate 20 g/ha
Protocol: as §1

[6] = tested on: Amaranthus retroflexus; test: as above; settings: application rate 20 g/ha
Protocol: as §1

[7] = tested on: Pharbitis purpurea; test: as above; settings: application rate 20 g/ha
Protocol: as §1

[8] = tested on: Veronica persica; test: as above
Protocol: as §1

[9] = tested on: Stellaria media; test: as above; settings: application rate 20 g/ha
Protocol: as §1

[10] = tested on: Polygonum convolvulus; test: as above
Protocol: as §1

[11] = tested on: Triticum aestivum; test: Crop compatibility post-emergence, greenhouse pot test
Protocol: as §1, with “plants.” for “plants. Tables A1 to A16 below show the efficacies of selected compounds of the general formula (I) according to tables I.1 to I.50 on various harmful plants and an application rate corresponding to 80 g/ha or lower that were obtained by the aforementioned trial method.”
(§2) Crop plant compatibilities were also scored correspondingly.
(§3) The effects observed are reported here on selected crop plants by comparison, with the untreated controls (values in %).

[12] = tested on: Digitaria sanguinalis; test: Herbicidal action post-emergence, greenhouse pot test; settings: application rate 20 g/ha
[13] = tested on: Oryza sativa; test: Crop compatibility post-emergence, greenhouse pot test
Protocol: as §1, with “plants.” for “plants. Tables A1 to A16 below show the efficacies of selected compounds of the general formula (I) according to tables I.1 to I.50 on various harmful plants and an application rate corresponding to 80 g/ha or lower that were obtained by the aforementioned trial method.”
as §2, §3

SMILES: CC(Sc1cc(-n2c(=O)cc(C(F)(F)F)n(C)c2=O)c(F)cc1Cl)C(=O)OCC1CCC(=O)O1 (stereo not shown) [I.1-145]
Oryza sativa (Efficacy in %) ([13]; application rate 5 g/ha): 20%

SMILES: CCOC(=O)C1(COC(=O)C(C)Sc2cc(-n3c(=O)cc(C(F)(F)F)n(C)c3=O)c(F)cc2Cl)CCOCC1 (stereo not shown) [I.1-293]
Viola tricolor (Efficacy in %) [1]: 100%
Abutilon theophrasti (Efficacy in %) [2]: 100%
Setaria viridis (Efficacy in %) [3]: 90%
Echinochloa crus-galli (Efficacy in %) [4]: 90%
Matricaria inodora (Efficacy in %) [5]: 100%
Amaranthus retroflexus (Efficacy in %) [6]: 100%
Veronica persica (Efficacy in %) ([8]; application rate 20 g/ha): 100%
Stellaria media (Efficacy in %) [9]: 100%
Digitaria sanguinalis (Efficacy in %) [12]: 100%

SMILES: CCOC(=O)CCOC(=O)C(CC(C)C)Sc1cc(-n2c(=O)cc(C(F)(F)F)n(C)c2=O)c(F)cc1Cl (stereo not shown) [I.4-3, 3-Ethoxy-3-oxopropyl 2-({2-chloro-4-fluoro-5-[3-methyl-2,6-dioxo-4-(trifluormethyl)-3,6-dihydropyrimidin-1(2H)-yl]phenyl}sulfanyl)-4-methylpentanoate]
Viola tricolor (Efficacy in %) [1]: 100%
Abutilon theophrasti (Efficacy in %) [2]: 100%
Setaria viridis (Efficacy in %) [3]: 90%
Matricaria inodora (Efficacy in %) [5]: 80%
Amaranthus retroflexus (Efficacy in %) [6]: 100%
Veronica persica (Efficacy in %) ([8]; application rate 20 g/ha): 80%

SMILES: CCOC(=O)CCOC(=O)C(Sc1cc(-n2c(=O)cc(C(F)(F)F)n(C)c2=O)c(F)cc1Cl)C(C)C (stereo not shown) [I.6-3, 3-Ethoxy-3-oxopropyl 2-({2-chloro-4-fluoro-5-[3-methyl-2,6-dioxo-4-(trifluoromethyl)-3,6-dihydropyrimidin-1(2H)-yl]phenyl}sulfanyl)-3-methylbutanoate]
Viola tricolor (Efficacy in %) [1]: 100%
Abutilon theophrasti (Efficacy in %) [2]: 100%
Setaria viridis (Efficacy in %) [3]: 100%
Matricaria inodora (Efficacy in %) [5]: 100%
Amaranthus retroflexus (Efficacy in %) [6]: 100%
Veronica persica (Efficacy in %) ([8]; application rate 20 g/ha): 100%
Stellaria media (Efficacy in %) [9]: 100%
Oryza sativa (Efficacy in %) ([13]; application rate 20 g/ha): 20%
Digitaria sanguinalis (Efficacy in %) [12]: 100%

SMILES: CCOC(=O)COC(=O)C(COC)Sc1cc(-n2c(=O)cc(C(F)(F)F)n(C)c2=O)c(F)cc1Cl (stereo not shown) [I.7-43]
Digitaria sanguinalis (Efficacy in %) [12]: 100%

SMILES: CCOC(=O)COC(=O)CSc1cc(-n2c(=O)cc(C(F)(F)F)n(C)c2=O)c(F)cc1Cl [I.8-43]
Viola tricolor (Efficacy in %) [1]: 100%
Abutilon theophrasti (Efficacy in %) [2]: 100%
Setaria viridis (Efficacy in %) [3]: 100%
Echinochloa crus-galli (Efficacy in %) [4]: 90%
Matricaria inodora (Efficacy in %) [5]: 100%
Amaranthus retroflexus (Efficacy in %) [6]: 100%
Pharbitis purpurea (Efficacy in %) [7]: 100%
Veronica persica (Efficacy in %) ([8]; application rate 20 g/ha): 100%
Stellaria media (Efficacy in %) [9]: 80%
Polygonum convolvulus (Efficacy in %) ([10]; application rate 20 g/ha): 100%
Triticum aestivum (Efficacy in %) ([11]; application rate 5 g/ha): 10%

SMILES: Cn1c(C(F)(F)F)cc(=O)n(-c2cc(SCC(=O)OCC(=O)OCc3ccccc3)c(Cl)cc2F)c1=O [I.8-46]
Viola tricolor (Efficacy in %) [1]: 100%
Abutilon theophrasti (Efficacy in %) [2]: 100%
Setaria viridis (Efficacy in %) [3]: 100%
Echinochloa crus-galli (Efficacy in %) [4]: 90%
Matricaria inodora (Efficacy in %) [5]: 100%
Amaranthus retroflexus (Efficacy in %) [6]: 100%
Pharbitis purpurea (Efficacy in %) [7]: 100%
Veronica persica (Efficacy in %) ([8]; application rate 20 g/ha): 100%
Stellaria media (Efficacy in %) [9]: 100%
Polygonum convolvulus (Efficacy in %) ([10]; application rate 20 g/ha): 100%
Triticum aestivum (Efficacy in %) ([11]; application rate 5 g/ha): 20%

Further lines, with some results ahead:

Triticum aestivum (Efficacy in %) ([11]; application rate 5 g/ha): 0%
SMILES: CCCCOC(=O)COC(=O)C(C)Sc1cc(-n2c(=O)cc(C(F)(F)F)n(C)c2=O)c(F)cc1Cl (stereo not shown) [I.1-51]
Viola tricolor (Efficacy in %) [1]: 100%
Abutilon theophrasti (Efficacy in %) [2]: 100%
Setaria viridis (Efficacy in %) [3]: 100%
Echinochloa crus-galli (Efficacy in %) [4]: 100%
Matricaria inodora (Efficacy in %) [5]: 100%
Amaranthus retroflexus (Efficacy in %) [6]: 100%
Pharbitis purpurea (Efficacy in %) [7]: 100%
Veronica persica (Efficacy in %) ([8]; application rate 20 g/ha): 100%
Stellaria media (Efficacy in %) [9]: 100%
Polygonum convolvulus (Efficacy in %) ([10]; application rate 20 g/ha): 100%
Digitaria sanguinalis (Efficacy in %) [12]: 90%

Triticum aestivum (Efficacy in %) ([11]; application rate 20 g/ha): 20%
Oryza sativa (Efficacy in %) ([13]; application rate 20 g/ha): 0%
SMILES: CCC(Sc1cc(-n2c(=O)cc(C(F)(F)F)n(C)c2=O)c(F)cc1Cl)C(=O)OCC1CCC(=O)O1 (stereo not shown) [I.2-145, (5-Oxotetrahydrofuran-2-yl)methyl 2-({2-chloro-4-fluoro-5-[3-methyl-2,6-dioxo-4-(trifluoromethyl)-3,6-dihydropyrimidin-1(2H)-yl]phenyl}sulfanyl)butanoate]
Viola tricolor (Efficacy in %) [1]: 100%
Abutilon theophrasti (Efficacy in %) [2]: 100%
Setaria viridis (Efficacy in %) [3]: 100%
Echinochloa crus-galli (Efficacy in %) [4]: 100%
Matricaria inodora (Efficacy in %) [5]: 100%
Amaranthus retroflexus (Efficacy in %) [6]: 100%
Veronica persica (Efficacy in %) ([8]; application rate 20 g/ha): 100%
Stellaria media (Efficacy in %) [9]: 100%
Polygonum convolvulus (Efficacy in %) ([10]; application rate 20 g/ha): 100%
Digitaria sanguinalis (Efficacy in %) [12]: 100%

Triticum aestivum (Efficacy in %) ([11]; application rate 20 g/ha): 10%
Oryza sativa (Efficacy in %) ([13]; application rate 20 g/ha): 10%
SMILES: CCOC(=O)COC(=O)C(CC(C)C)Sc1cc(-n2c(=O)cc(C(F)(F)F)n(C)c2=O)c(F)cc1Cl (stereo not shown) [I.4-43]
Viola tricolor (Efficacy in %) [1]: 100%
Abutilon theophrasti (Efficacy in %) [2]: 100%
Matricaria inodora (Efficacy in %) [5]: 90%
Amaranthus retroflexus (Efficacy in %) [6]: 100%
Veronica persica (Efficacy in %) ([8]; application rate 20 g/ha): 100%
Stellaria media (Efficacy in %) [9]: 80%
Polygonum convolvulus (Efficacy in %) ([10]; application rate 20 g/ha): 100%

Oryza sativa (Efficacy in %) ([13]; application rate 20 g/ha): 0%
SMILES: CCOC(=O)COC(=O)C(Sc1cc(-n2c(=O)cc(C(F)(F)F)n(C)c2=O)c(F)cc1Cl)C(C)C (stereo not shown) [I.6-43, 2-Ethoxy-2-oxoethyl 2-({2-chloro-4-fluoro-5-[3-methyl-2,6-dioxo-4-(trifluoromethyl)-3,6-dihydropyrimidin-1(2H)-yl]phenyl}sulfanyl)-3-methylbutanoate]
Viola tricolor (Efficacy in %) [1]: 100%
Abutilon theophrasti (Efficacy in %) [2]: 100%
Veronica persica (Efficacy in %) ([8]; application rate 5 g/ha): 100%
Stellaria media (Efficacy in %) [9]: 90%

Triticum aestivum (Efficacy in %) ([11]; application rate 5 g/ha): 20%
SMILES: CC(C)OC(=O)COC(=O)CSc1cc(-n2c(=O)cc(C(F)(F)F)n(C)c2=O)c(F)cc1Cl [I.8-44]
Viola tricolor (Efficacy in %) [1]: 100%
Abutilon theophrasti (Efficacy in %) [2]: 100%
Setaria viridis (Efficacy in %) [3]: 100%
Matricaria inodora (Efficacy in %) [5]: 100%
Amaranthus retroflexus (Efficacy in %) [6]: 100%
Pharbitis purpurea (Efficacy in %) [7]: 100%
Veronica persica (Efficacy in %) ([8]; application rate 20 g/ha): 100%
Stellaria media (Efficacy in %) [9]: 100%
Polygonum convolvulus (Efficacy in %) ([10]; application rate 5 g/ha): 100%

Triticum aestivum (Efficacy in %) ([11]; application rate 5 g/ha): 10%
Oryza sativa (Efficacy in %) ([13]; application rate 20 g/ha): 10%
SMILES: CCOC(=O)CCOC(=O)C(C)Sc1cc(-n2c(=O)c(C)c(C(F)(F)F)n(C)c2=O)c(F)cc1Cl (stereo not shown) [I.11-3]
Viola tricolor (Efficacy in %) [1]: 90%
Abutilon theophrasti (Efficacy in %) [2]: 100%
Echinochloa crus-galli (Efficacy in %) [4]: 100%
Matricaria inodora (Efficacy in %) [5]: 90%
Stellaria media (Efficacy in %) [9]: 100%
